The first series in a line: Log P by HPLC on reversed phase columns, method [a] (EEC directive 79/831 Annex V.A8). Conditions: log P determined according to method [a] (HPLC on reversed phase columns). It is filed as physicochemical. The protocol:
Measurement of Log P values as provided herein was performed according to EEC directive 79/831 Annex V.A8 by HPLC (High Performance Liquid Chromatography) on reversed phase columns with the following methods: • ^[a] Log P value is determined by measurement of LC-UV, in an acidic range, with 0.1% formic acid in water and acetonitrile as eluent (linear gradient from 10% acetonitrile to 95% acetonitrile). • ^[b] Log P value is determined by measurement of LC-UV, in a neutral range, with 0.001 molar ammonium acetate solution in water and acetonitrile as eluent (linear gradient from 10% acetonitrile to 95% acetonitrile). • ^[c] Log P value is determined by measurement of LC-UV, in an acidic range, with 0.1% phosphoric acid and acetonitrile as eluent (linear gradient from 10% acetonitrile to 95% acetonitrile). If more than one Log P value is available within the same method, all the values are given and separated by “+”. Calibration was done with straight-chain alkan2-ones (with 3 to 16 carbon atoms) with known Log P values (measurement of Log P values using retention times with linear interpolation between successive alkanones). Lambda-max-values were determined using UV-spectra from 200 nm to 400 nm and the peak values of the chromatographic signals In table 1, the log P values were determined according to method [^a]. In table 2, the log P values were determined according to method [^a].
The logP is a log measure of how a compound divides between an organic and an aqueous phase. A lower logP goes with lower lipophilicity. With `FC(F)c1nnc(-c2cnc(Cc3ccccc3)nc2)o1` [Example I-075], the lipophilicity (logP) is 2.49.
Regarding `Fc1ccccc1Nc1ncc(-c2nnc(C(F)F)o2)cn1` [Example I-093], the logP came out at 2.43.
`FC(F)c1nnc(-c2cnc(-c3cccs3)nc2)o1` [Example I-071] yielded a logP of 2.64.
On to `Nc1ncc(-c2nnc(C(F)F)o2)cn1` [Example I-059], for which the logP came out at 0.75.
`O=C(Nc1ccccc1)Nc1ccc(-c2nnc(C(F)F)o2)cn1` [Example I-051] showed a logP of 2.57.
On the same count and under the same terms, as for `FC(F)c1nnc(-c2cnc(CC3CCCCC3)nc2)o1` [Example I-083], the figure is 3.40; as for `FC(F)c1nnc(-c2cnc(Nc3ccccc3)nc2)o1` [Example I-076], 2.54.
On the same count and under the same terms, as for `CN(C)NC(=O)c1ccc(-c2nnc(C(F)F)o2)cn1` [Example I-042], the figure is 1.14; as for `FC(F)c1nnc(-c2cnc(C3=CCCC3)nc2)o1` [Example I-065], 2.70.
On the same count and under the same terms, as for `FC(F)c1nnc(-c2cnc(Sc3ccccc3)nc2)o1` [Example I-092], the figure is 3.04; as for `CC1(C(=O)Nc2ccc(-c3nnc(C(F)F)o3)cn2)CC1` [Example I-045], 2.28.
In turn, `Fc1ccc(C2(Nc3ccc(-c4nnc(C(F)F)o4)cn3)CC2)cc1` [Example I-054] registered a logP of 2.79.
Still for that read-out and setting: as for `FC(F)c1nnc(-c2cnc(-c3ccccc3)nc2)o1` [Example I-069], the figure is 2.98; as for `Fc1ccc(Cc2ncc(-c3nnc(C(F)F)o3)cn2)cc1` [Example I-091], 2.59; as for `Fc1ccccc1Nc1ccc(-c2nnc(C(F)F)o2)cc1` [Example I-017], 3.19.
The compound `COCCNC(=O)c1ccc(-c2nnc(C(F)F)o2)cn1` [Example I-047] registered a logP of 1.55.
`FC(F)c1nnc(-c2cnc(-c3ccccc3Cl)nc2)o1` [Example I-099] returned a logP of 3.32.
Same read-out and setting: as for `Fc1ccc(-c2ncc(-c3nnc(C(F)F)o3)cn2)cc1` [Example I-077], the figure is 3.70.
On the same count and under the same terms, as for `CNc1ncc(-c2nnc(C(F)F)o2)cn1` [Example I-060], the figure is 1.23; as for `FC(F)c1nnc(-c2ccc(COc3ccc(Cl)cc3)cc2)o1` [Example I-024], 4.03.
Turning to `Cc1ccc(NC(=O)c2ccc(-c3nnc(C(F)F)o3)cn2)cc1` [Example I-048], the logP is given as 3.14.
On the same count and under the same terms, as for `FC(F)c1nnc(-c2ccc(Nc3ncccn3)cc2)o1` [Example I-013], the figure is 2.23; as for `FC(F)c1nnc(-c2ccc(-c3ccco3)nc2)o1` [Example I-035], 2.33; as for `Nc1ccc(-c2nnc(C(F)F)o2)cn1` [Example I-030], 0.11.

The series is the same for the next values; noted with them: reversed phase HPLC column; Method A: LC-UV, acidic range, 0.1% formic acid in water and acetonitrile; read-out: Log P.
With `COC(=O)c1ccc(-c2nnc(C(F)(F)F)s2)cc1` [I.011, methyl 4-[5-(trifluoromethyl)-1,3,4-thiadiazol-2-yl]benzoate], the chromatographic logP came out at 3.23.
Same read-out and setting: as for `NNC(=O)c1cnc(NC2(c3ccccc3)CCC2)nc1` [2-[(1-phenylcyclobutyl)amino]pyrimidine-5-carbohydrazide], the figure is 1.63; as for `CCc1noc(-c2ccc(C(=O)NNC(=O)OC(C)(C)C)cc2)n1` [tert-butyl 2-[4-(3-ethyl-1,2,4-oxadiazol-5-yl)benzoyl]hydrazinecarboxylate], 1.23.

The same series, now with this note: reversed phase HPLC column; log P determined according to method [a] (HPLC on reversed phase columns); read-out: logP.
Turning to `FC(F)c1nnc(-c2cnc(-c3ccc(Cl)cc3)nc2)o1` [I.101, 2-(4-chlorophenyl)-5-[5-(difluoromethyl)-1,3,4-oxadiazol-2-yl]pyrimidine], the chromatographic logP was 3.6.
Turning to `Fc1ccc(C2(Oc3ncc(-c4nnc(C(F)F)o4)cn3)CC2)cc1` [I.149, 5-[5-(difluoromethyl)-1,3,4-oxadiazol-2-yl]-2-{[1-(4-fluorophenyl)cyclopropyl]oxy}pyrimidine], the chromatographic logP was found to be 3.19.
The same measure, in the same setting: as for `CCC(C)(Nc1ncc(-c2nnc(C(F)F)o2)cn1)c1ccccc1` (stereo not drawn) [I.138, 5-[5-(difluoromethyl)-1,3,4-oxadiazol-2-yl]-N-(2-phenylbutan-2-yl)pyrimidin-2-amine], the figure is 3.5.
On the same count and under the same terms, as for `Fc1cccc(F)c1C1(Nc2ncc(-c3nnc(C(F)F)o3)cn2)CC1` [I.164, 5-[5-(difluoromethyl)-1,3,4-oxadiazol-2-yl]-N-[1-(2,6-difluorophenyl)cyclopropyl]pyrimidin-2-amine], the figure is 2.95.
Same read-out and setting: as for `FC(F)c1nnc(-c2cnc(OC3(c4ccccc4)COC3)nc2)o1` [I.142, 5-[5-(difluoromethyl)-1,3,4-oxadiazol-2-yl]-2-[(3-phenyloxetan-3-yl)oxy]pyrimidine], the figure is 2.51.

The same series, now with this note: reversed phase HPLC column; method [a], HPLC on reversed phase columns; read-out: logP.
Consider `FC(F)c1nnc(-c2cnc(NC3(c4cccc(Cl)c4Cl)CC3)nc2)o1` [I.253, N-[1-(2,3-dichlorophenyl)cyclopropyl]-5-[5-(difluoromethyl)-1,3,4-oxadiazol-2-yl]pyrimidin-2-amine], for which the chromatographic logP was found to be 3.74.
In the case of `Fc1ccccc1C1(Nc2ncc(-c3nnc(C(F)(F)F)s3)cn2)CC1` [I.178, N-[1-(2-fluorophenyl)cyclopropyl]-5-[5-(trifluoromethyl)-1,3,4-thiadiazol-2-yl]pyrimidin-2-amine], the chromatographic logP was found to be 3.79.
Still for that read-out and setting: as for `Fc1ccc([C@H](Nc2ncc(-c3nnc(C(F)F)o3)cn2)C2CCCC2)cc1` [I.244, N—[(R)-cyclopentyl(4-fluorophenyl)methyl]-5-[5-(difluoromethyl)-1,3,4-oxadiazol-2-yl]pyrimidin-2-amine], the figure is 4.05; as for `CC(Nc1ncc(-c2nnc(C(F)F)o2)cn1)c1cccc(OC(F)(F)F)c1` (racemic) [I.257, 5-[5-(difluoromethyl)-1,3,4-oxadiazol-2-yl]-N-{(1RS)-1-[3-(trifluoromethoxy)phenyl]ethyl}pyrimidin-2-amine], 3.53.
On the same count and under the same terms, as for `CCC(Nc1ncc(-c2nnc(C(F)F)o2)cn1)c1ccc(Cl)cc1` (racemic) [I.230, N-[(1RS)-1-(4-chlorophenyl)propyl]-5-[5-(difluoromethyl)-1,3,4-oxadiazol-2-yl]pyrimidin-2-amine], the figure is 3.58; as for `FC(F)c1nnc(-c2cnc(NC3(c4ccccc4)CC3)nc2)o1` [I.195, 5-[5-(difluoromethyl)-1,3,4-oxadiazol-2-yl]-N-(1-phenylcyclopropyl)pyrimidin-2-amine], 2.62; as for `Cc1ccc(C(C)(CO)Nc2ncc(-c3nnc(C(F)F)o3)cn2)cc1C` (racemic) [I.235, (2RS)-2-({5-[5-(difluoromethyl)-1,3,4-oxadiazol-2-yl]pyrimidin-2-yl}amino)-2-(3,4-dimethylphenyl)propan-1-ol], 2.68.
The same measure, in the same setting: as for `Fc1ccc(C2(Nc3ncc(-c4nnc(C(F)F)o4)cn3)CCC2)cc1` [I.220, 5-[5-(difluoromethyl)-1,3,4-oxadiazol-2-yl]-N-[1-(4-fluorophenyl)cyclobutyl]pyrimidin-2-amine], the figure is 3.33; as for `CC(Cc1ccc(F)cc1)Nc1ncc(-c2nnc(C(F)F)o2)cn1` (racemic) [I.210, 5-[5-(difluoromethyl)-1,3,4-oxadiazol-2-yl]-N-[(2RS)-1-(4-fluorophenyl)propan-2-yl]pyrimidin-2-amine], 3.12; as for `FC(F)c1nnc(-c2cnc(NC3(c4cc(Cl)cc(Cl)c4)CC3)nc2)o1` [I.254, N-[1-(3,5-dichlorophenyl)cyclopropyl]-5-[5-(difluoromethyl)-1,3,4-oxadiazol-2-yl]pyrimidin-2-amine], 3.63.
As for `FC(F)c1nnc(-c2cnc(NC3(c4cc(Cl)ccc4Cl)CC3)nc2)o1` [I.251, N-[1-(2,5-dichlorophenyl)cyclopropyl]-5-[5-(difluoromethyl)-1,3,4-oxadiazol-2-yl]pyrimidin-2-amine], the chromatographic logP turned out to be 3.84.
On the same count and under the same terms, as for `FC(F)c1nnc(-c2cnc(NC3(c4cccs4)CCCC3)nc2)o1` [I.225, 5-[5-(difluoromethyl)-1,3,4-oxadiazol-2-yl]-N-[1-(2-thienyl)cyclopentyl]pyrimidin-2-amine], the figure is 3.45.
Same read-out and setting: as for `CC(Nc1ncc(-c2nnc(C(F)F)o2)cn1)c1ncccn1` (racemic) [I.191, 5-[5-(difluoromethyl)-1,3,4-oxadiazol-2-yl]-N-[(1RS)-1-(pyrimidin-2-yl)ethyl]pyrimidin-2-amine], the figure is 1.49; as for `FC(F)c1nnc(-c2cnc(NC(Cc3ccccc3)c3ccccc3)nc2)o1` (racemic) [I.245, 5-[5-(difluoromethyl)-1,3,4-oxadiazol-2-yl]-N-[(1RS)-1,2-diphenylethyl]pyrimidin-2-amine], 3.68; as for `COc1ccc(C(C)Nc2ncc(-c3nnc(C(F)F)o3)cn2)cc1` (racemic) [I.207, 5-[5-(difluoromethyl)-1,3,4-oxadiazol-2-yl]-N-[(1RS)-1-(4-methoxyphenyl)ethyl]pyrimidin-2-amine], 2.75.
For the compound `FC(F)c1nnc(-c2cnc(NC3(c4cccc(Cl)c4)CCCCC3)nc2)o1` [I.258, N-[1-(3-chlorophenyl)cyclohexyl]-5-[5-(difluoromethyl)-1,3,4-oxadiazol-2-yl]pyrimidin-2-amine], the chromatographic logP was found to be 4.35.

For the origin of these results see patent publication US20220144815A1, “1,3,4-OXADIAZOLES AND THEIR DERIVATIVES AS NEW ANTIFUNGAL AGENTS” (Bayer Aktiengesellschaft, priority 2018, published 2022).
